According to US12209102B2, “Heterocyclic compounds and uses thereof” (Kumquat Biosciences Inc., priority 2022, dated 2025):

Columns and labels:
K-Ras G12D = target: T1, K-Ras G12D (Homo sapiens, UniProt P01116, G12D); assay: HTRF resonance energy transfer assay, K-Ras G12D / SOS1 interaction; assay type: biochemical; details: HTRF assay of Example 5; read-out: IC50 against K-Ras G12D
T1 construct: made in house; host or cells: E. coli BL21 (DE3)
Procedure, shortened: (§1)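 Read-out: HTRF 665/620 nm ratio (excitation 337 nm) after roughly 10 min or longer incubation, used to derive IC50. Donor anti-GST-Eu on GST-K-Ras; acceptor anti-6His-XL665 on His-hSOS1. Duplicate dose series from 10 μM down to 0.01 μM.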

K-Ras G12S = target: T2, K-Ras G12S (Homo sapiens, UniProt P01116, G12S); assay: HTRF resonance energy transfer assay, K-Ras G12S / SOS1 interaction; assay type: biochemical; details: HTRF assay of Example 5; read-out: IC50 against K-Ras G12S
T2 construct: made in house; host or cells: E. coli BL21 (DE3)
T2 sequence (P01116 1-188 isoform P01116-2 G12S): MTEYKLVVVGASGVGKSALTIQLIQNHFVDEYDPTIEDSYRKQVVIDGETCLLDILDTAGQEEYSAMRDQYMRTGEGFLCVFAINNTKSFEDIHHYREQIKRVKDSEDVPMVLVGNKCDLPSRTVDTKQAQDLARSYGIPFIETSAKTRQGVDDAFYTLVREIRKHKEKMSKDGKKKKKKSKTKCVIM
Procedure, shortened: as §1

K-Ras G12V = target: T3, K-Ras G12V (Homo sapiens, UniProt P01116, G12V); assay: HTRF resonance energy transfer assay, K-Ras G12V / SOS1 interaction; assay type: biochemical; details: HTRF assay of Example 5; read-out: IC50 against K-Ras G12V
T3 construct: made in house; host or cells: E. coli BL21 (DE3)
T3 sequence (P01116 1-188 isoform P01116-2 G12V): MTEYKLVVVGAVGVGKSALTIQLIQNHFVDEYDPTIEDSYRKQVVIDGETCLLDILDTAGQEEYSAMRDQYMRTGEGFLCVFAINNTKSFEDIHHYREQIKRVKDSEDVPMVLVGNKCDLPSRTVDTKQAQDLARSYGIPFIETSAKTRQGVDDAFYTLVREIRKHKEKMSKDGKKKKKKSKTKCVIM
Procedure, shortened: as §1

K-Ras WT = target: T4, K-Ras WT (Homo sapiens, UniProt P01116); assay: HTRF resonance energy transfer assay, K-Ras WT / SOS1 interaction; assay type: biochemical; details: HTRF assay of Example 5; read-out: IC50 against K-Ras WT
T4 construct: made in house; host or cells: E. coli BL21 (DE3)
T4 sequence (P01116 1-188 isoform P01116-2): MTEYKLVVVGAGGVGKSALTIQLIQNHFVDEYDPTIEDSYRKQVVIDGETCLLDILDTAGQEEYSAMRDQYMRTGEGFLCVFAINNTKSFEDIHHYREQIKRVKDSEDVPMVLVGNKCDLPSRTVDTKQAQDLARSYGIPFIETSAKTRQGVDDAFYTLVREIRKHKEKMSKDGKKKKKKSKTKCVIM
Procedure, shortened: as §1

GP2D cells = assay: Ras cellular assay, growth of cells with K-Ras G12D mutation (CellTiter-Glo); assay type: cell-based; details: cell growth, Example 9, G12D mutation, read-out: IC50 against GP2D cells
A549 cells = assay: Ras cellular assay, growth of cells with K-Ras G12S mutation (CellTiter-Glo); assay type: cell-based; details: Homo sapiens, cell growth, Example 9, G12S mutation, read-out: IC50 against A549 cells
Procedure, shortened: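 A549 cells (K-Ras G12S) in RPMI-1640 with 10% heat-inactivated FBS, seeded e.g. 800 per well in standard or ultra-low-attachment 384-well plates, treated next day with a dilution series (e.g. 10-point, 3-fold). Viability by CellTiter-Glo luminescence about 6 days later; IC50 from four-parameter fit.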

SW620 cells = assay: Ras cellular assay, growth of cells with K-Ras G12V mutation (CellTiter-Glo); assay type: cell-based; details: Homo sapiens, SW-620; cell growth, Example 9, G12V mutation; read-out: IC50 against SW620 cells
Procedure, shortened: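 SW620 (K-Ras G12V) cells, e.g. 800/well in RPMI-1640 with 10% heat-inactivated FBS on standard or ultra-low attachment plates, were dosed the day after plating with e.g. a 10-point 3-fold series. Viability by CellTiter-Glo luminescence about 6 days later; IC50 from four-parameter fit.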

T1 sequence (P01116 1-188 isoform P01116-2 G12D): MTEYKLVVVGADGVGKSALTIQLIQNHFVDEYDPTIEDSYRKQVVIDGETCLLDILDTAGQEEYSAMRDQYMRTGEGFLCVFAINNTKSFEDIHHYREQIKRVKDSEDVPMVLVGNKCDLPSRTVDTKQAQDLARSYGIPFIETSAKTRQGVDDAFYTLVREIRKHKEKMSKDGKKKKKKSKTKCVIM

IC50 (K-Ras G12D) [nM] | IC50 (K-Ras G12S) [nM] | IC50 (K-Ras G12V) [nM] | IC50 (K-Ras WT) [nM] | IC50 (A549 cells) [nM] | IC50 (SW620 cells) [nM] | Structure (SMILES) | IC50 (GP2D cells) [nM]
< 100 | < 100 | < 100 | < 100 | < 5000 | < 5000 | N#Cc1c(N)sc2c(F)ccc(-c3c(Cl)c4c5c(nc(OC[C@@]67CCCN6C[C@H](F)C7)nc5c3F)N(C3CCC(F)(F)C3)CCO4)c12 (stereo partly drawn) [Compound 717, 2-amino-4-(8-chloro-4-(3,3-difluorocyclopentyl)-10-fluoro-2-(((2R,7aS)-2-fluorotetrahydro-1H-pyrrolizin-7a(5H)-yl)methoxy)-5,6-dihydro-4H-[1,4]oxazepino[5,6,7-de]quinazolin-9-yl)-7-fluorobenzo[b]thiophene-3-carbonitrile] | < 500
< 100 | < 100 | < 100 | < 100 | < 5000 | < 5000 | CN(CCN1CCOc2c(Cl)c(-c3ccc(F)c4sc(N)c(C#N)c34)c(F)c3nc(OC[C@@]45CCCN4C[C@H](F)C5)nc1c23)C(=O)C(F)F [Compound 1127, N-(2-(9-(2-amino-3-cyano-7-fluorobenzo[b]thiophen-4-yl)-8-chloro-10-fluoro-2-(((2R,7aS)-2-fluorotetrahydro-1H-pyrrolizin-7a(5H)-yl)methoxy)-5,6-dihydro-4H-[1,4]oxazepino[5,6,7-de]quinazolin-4-yl)ethyl)-2,2-difluoro-N-methylacetamide] | < 500
< 100 | < 100 | < 100 | < 100 | < 5000 | < 5000 | N#Cc1c(N)sc2c(F)ccc(-c3c(Cl)c4c5c(nc(OC[C@@]67CCCN6C[C@H](F)C7)nc5c3F)N(C3CCOC3)CC(CF)O4)c12 (stereo partly drawn) [Compound 628, 2-amino-4-(8-chloro-10-fluoro-6-(fluoromethyl)-2-(((2R,7aS)-2-fluorotetrahydro-1H-pyrrolizin-7a(5H)-yl)methoxy)-4-(tetrahydrofuran-3-yl)-5,6-dihydro-4H-[1,4]oxazepino[5,6,7-de]quinazolin-9-yl)-7-fluorobenzo[b]thiophene-3-carbonitrile] | < 500
< 100 | < 100 | < 100 | < 100 | < 5000 | < 5000 | C[C@H](Oc1nc2c3c(c(Cl)c(-c4ccc(F)c5sc(N)c(C#N)c45)c(F)c3n1)OCCN2[C@@H]1CCN(C=O)C1)[C@@H]1CCCN1C [Compound 621, 2-amino-4-(8-chloro-10-fluoro-4-((R)-1-formylpyrrolidin-3-yl)-2-((S)-1-((S)-1-methylpyrrolidin-2-yl)ethoxy)-5,6-dihydro-4H-[1,4]oxazepino[5,6,7-de]quinazolin-9-yl)-7-fluorobenzo[b]thiophene-3-carbonitrile] | < 500
< 100 | < 100 | < 100 | < 100 | < 5000 | < 5000 | N#Cc1c(N)sc2c(F)ccc(-c3c(Cl)c4c5c(nc(OC[C@@]67CCCN6C[C@H](F)C7)nc5c3F)N(CCOC(F)F)CCO4)c12 [Compound 713, 2-amino-4-(8-chloro-4-(2-(difluoromethoxy)ethyl)-10-fluoro-2-(((2R,7aS)-2-fluorotetrahydro-1H-pyrrolizin-7a(5H)-yl)methoxy)-5,6-dihydro-4H-[1,4]oxazepino[5,6,7-de]quinazolin-9-yl)-7-fluorobenzo[b]thiophene-3-carbonitrile] | < 500

The next lines start with the compound.

Structure (SMILES) | IC50 (K-Ras G12D) [nM] | IC50 (K-Ras G12S) [nM] | IC50 (K-Ras G12V) [nM] | IC50 (K-Ras WT) [nM] | IC50 (A549 cells) [nM] | IC50 (SW620 cells) [nM] | IC50 (GP2D cells) [nM]
Cn1cc(N2CCOc3c(Cl)c(-c4ccc(F)c5sc(N)c(C#N)c45)c(F)c4nc(OC[C@@]56CCCN5C[C@H](F)C6)nc2c34)cn1 [Compound 765, 2-amino-4-(8-chloro-10-fluoro-2-(((2R,7aS)-2-fluorotetrahydro-1H-pyrrolizin-7a(5H)-yl)methoxy)-4-(1-methyl-1H-pyrazol-4-yl)-5,6-dihydro-4H-[1,4]oxazepino[5,6,7-de]quinazolin-9-yl)-7-fluorobenzo[b]thiophene-3-carbonitrile] | < 100 | < 100 | < 100 | < 100 | < 5000 | < 5000 | < 500
COC1CN(C(=O)N2CCC(N3CCOc4c(Cl)c(-c5ccc(F)c6sc(N)c(C#N)c56)c(F)c5nc(OC[C@@]67CCCN6C[C@H](F)C7)nc3c45)C2)C1 (stereo partly drawn) [Compound 834, 2-amino-4-(8-chloro-10-fluoro-2-(((2R,7aS)-2-fluorotetrahydro-1H-pyrrolizin-7a(5H)-yl)methoxy)-4-(1-(3-methoxyazetidine-1-carbonyl)pyrrolidin-3-yl)-5,6-dihydro-4H-[1,4]oxazepino[5,6,7-de]quinazolin-9-yl)-7-fluorobenzo[b]thiophene-3-carbonitrile] | < 100 | < 100 | < 100 | < 100 | < 5000 | < 5000 | < 500
C=C[C@H]1COc2c(Cl)c(-c3ccc(F)c4sc(N)c(C#N)c34)c(F)c3nc(OC[C@@]45CCCN4C[C@H](F)C5)nc(c23)N1C1CCOC1 (stereo partly drawn) [Compound 726, 2-amino-4-((5S)-8-chloro-10-fluoro-2-(((2R,7aS)-2-fluorotetrahydro-1H-pyrrolizin-7a(5H)-yl)methoxy)-4-(tetrahydrofuran-3-yl)-5-vinyl-5,6-dihydro-4H-[1,4]oxazepino[5,6,7-de]quinazolin-9-yl)-7-fluorobenzo[b]thiophene-3-carbonitrile] | < 100 | < 100 | < 100 | < 100 | < 5000 | < 5000 | < 500
CC(CO)N1CCOc2c(Cl)c(-c3ccc(F)c4sc(N)c(C#N)c34)c(F)c3nc(OC[C@@]45CCCN4C[C@H](F)C5)nc1c23 (stereo partly drawn) [Compound 937, 2-amino-4-(8-chloro-10-fluoro-2-(((2R,7aS)-2-fluorotetrahydro-1H-pyrrolizin-7a(5H)-yl)methoxy)-4-(1-hydroxypropan-2-yl)-5,6-dihydro-4H-[1,4]oxazepino[5,6,7-de]quinazolin-9-yl)-7-fluorobenzo[b]thiophene-3-carbonitrile] | < 100 | < 100 | < 100 | < 100 | < 5000 | < 5000 | < 500
N#Cc1c(N)sc2c(F)ccc(-c3c(Cl)c4c5c(nc(OC[C@@]67CCCN6C[C@H](F)C7)nc5c3F)N(CC3(O)CC3)CCO4)c12 [Compound 868, 2-amino-4-(8-chloro-10-fluoro-2-(((2R,7aS)-2-fluorotetrahydro-1H-pyrrolizin-7a(5H)-yl)methoxy)-4-((1-hydroxycyclopropyl)methyl)-5,6-dihydro-4H-[1,4]oxazepino[5,6,7-de]quinazolin-9-yl)-7-fluorobenzo[b]thiophene-3-carbonitrile] | < 100 | < 100 | < 100 | < 100 | < 5000 | < 5000 | < 500
CC1COc2c(Cl)c(-c3ccc(F)c4sc(N)c(C#N)c34)c(F)c3nc(OC[C@@]45CCCN4C[C@H](F)C5)nc(c23)N1[C@@H]1CCOC1 (stereo partly drawn) [Compound 888, 2-amino-4-(8-chloro-10-fluoro-2-(((2R,7aS)-2-fluorotetrahydro-1H-pyrrolizin-7a(5H)-yl)methoxy)-5-methyl-4-((R)-tetrahydrofuran-3-yl)-5,6-dihydro-4H-[1,4]oxazepino[5,6,7-de]quinazolin-9-yl)-7-fluorobenzo[b]thiophene-3-carbonitrile] | < 100 | < 100 | < 100 | < 100 | < 5000 | < 5000 | < 500
CC(C)[C@H]1COc2c(Cl)c(-c3ccc(F)c4sc(N)c(C#N)c34)c(F)c3nc(OC[C@@]45CCCN4C[C@H](F)C5)nc(c23)N1CC(F)F [Compound 884, 2-amino-4-((5S)-8-chloro-4-(2,2-difluoroethyl)-10-fluoro-2-(((2R,7aS)-2-fluorotetrahydro-1H-pyrrolizin-7a(5H)-yl)methoxy)-5-isopropyl-5,6-dihydro-4H-[1,4]oxazepino[5,6,7-de]quinazolin-9-yl)-7-fluorobenzo[b]thiophene-3-carbonitrile] | < 100 | < 100 | < 100 | < 100 | < 5000 | < 5000 | < 500
